Measurements taken from article PMC5786306, “An AKAP-Lbc-RhoA interaction inhibitor promotes the translocation of aquaporin-2 to the plasma membrane of renal collecting duct principal cells” (PLoS ONE, 2018).

Experiments:
[1] = target: T1, AKAP-Lbc/DHPH-induced RhoA activation (Homo sapiens, UniProt P61586); assay: Guanine nucleotide exchange (GEF) assay with mant-GTP (screen and secondary assays); type: biochemical
T1 construct: AKAP-Lbc/DHPH (aa 1923–2336 of human AKAP-Lbc; NP_006729.4, NCBI); made in house; host or cells: E. coli Rosetta (DE3)
Procedure: Fluorescence was recorded for 15 min in a 384-well plate in a microplate reader (Tecan, Safire; Durham, US) at 440 nm (360 nm excitation wavelength).
For all dispensing and washing steps an EL406 washer/dispenser combination (BioTek Instruments, Bad Friedrichshall, Germany) was used. The screen was performed in a 384-well plate format. […] Z score describes the distance of a sample signal to the mean of all other samples on the plate in units of standard deviation. […] Compound identity and purity of samples used in this secondary screen were validated by mass spectrometric analysis.
The DHPH domain of the RhoA-specific guanine nucleotide exchange factor (GEF) AKAP-Lbc and RhoA were generated as recombinant proteins. The DHPH domain-catalyzed exchange of GDP for the fluorescent mant-GTP was monitored at the emission wavelength of RhoA-bound mant-GTP at 440 nm. (B) The fluorescence signal intensity changes were determined for all samples including positive and negative controls and percent inhibitions calculated based on the controls.

[2] = target: T2, GST-RhoA (F25N), GDP- or GTPγS-bound (Homo sapiens, UniProt P61586, F25N); assay: Isothermal titration calorimetry (ITC) with GST-RhoA; type: binding
T2 construct: made in house
Procedure: ITC measurements were essentially carried out as previously described. The stabilizing RhoA mutant F25N [41] was purified as a GST-RhoA fusion in its GDP-bound form (final gel filtration purification step in 20 mM HEPES, pH 7.5, 150 mM NaCl, 2 mM DTT, 50 μM GDP). In order to exchange GDP against GTPγS, GST-RhoA loaded with GDP was incubated for 20 min in ITC nucleotide exchange buffer (50 mM HEPES, pH 7.5, 20 mM EDTA) at 25°C followed by three dilution and concentration steps in Amicon tubes (10,000 MWCO) using ITC dialysis buffer (50 mM HEPES, pH 7.4, 150 mM NaCl, 5 mM MgCl2, 2 mM β-mercaptoethanol). The nucleotide-loading state was confirmed by HPLC. All proteins used in ITC measurements were dialyzed overnight against ITC dialysis buffer. Protein concentrations were determined with NanoDrop ND-1000. GDP or GTPγS (final concentration 2 mM) and DMSO (2%) were added to the proteins prior to the ITC measurements. Scaff10-8 was dissolved in the same buffer (including 2% DMSO and 2 mM GDP or GTPγS). ITC measurements were performed on a VP-ITC (GE Healthcare, München, DE) at 15°C. Titrations were conducted using 14.8 μM Scaff10-8 in the cell and 235 μM (GST control), 222 μM (GST-RhoA, GDP-bound) or 210 μM (GST-RhoA, GTPγS-bound) in the syringe. The cell was stirred at 351 rpm and a total of 27 x 10 μl injections were added to the cell, separated by 240 s of equilibration. The data were fitted using the Microcal Origin software (version 7.0) and a one-site binding model. We consistently observed a binding number close to N = 0.5 (RhoA/Scaff10-8). This observation may be due to the binding of two molecules of Scaff10-8 per one molecule of GST-RhoA for both the GDP-bound and GTPγS-bound form of GST-RhoA, or due to some inaccuracy in the determination of protein or compound concentrations. The data were thus fitted using a fixed binding number of N = 0.5.

[3] = test system: IMCD, MCD4, HEK293, MCF7 and H9C2 cells; assay: MTS cytotoxicity assay; type: cell-based, rat, mouse, human; settings: 3–100 μM, 24–72 h
Procedure: The potential cytotoxicity of Scaff10-8 on primary IMCD and several permanent cell lines (MCF7, H9C2, HEK293, MCD4) was assessed using the tetrazolium compound-based CellTiter 96 AQueous One Solution Cell Proliferation (3-(4,5-dimethylthiazol-2-yl)-5-(3-carboxymethoxyphenyl)-2-(4-sulfophenyl)-2H-tetrazolium) (MTS) assay according to the instructions of the manufacturer. In brief, the cells were seeded into 96 well plates (5,000 cells per well) and cultured in their appropriate medium Scaff10-8 (100 μM, 30 μm and 3 μm, 0.3% final DMSO concentration) were added, DMSO (0.3%) was included as a control. Staurosporine (1 μM) was included as a positive control. All conditions were tested in quadruplicate. At the indicated time points, the MTS reagent was added. Absorption was determined 4 h after addition of MTS reagent at 450 nm wavelength. The MST reagent absorbance at 450 nm is proportional to the amount of living cells. A blank measurement determined the medium absorption (background). Values were normalized to untreated cells after 24 h for each cell line.
Fig 6 Scaff10-8 is not cytotoxic. […] (B) Cytotoxicity was assessed after 24–72 h of incubation with Scaff10-8 (3, 30, 100 μM). […] Absorption was determined at 450 nm and was related to medium absorption (blank). […] Statistically significant differences were determined applying one-way ANOVA with posthoc Bonferroni. […]

T1 sequence (P61586 whole entry, the tested form may be a part): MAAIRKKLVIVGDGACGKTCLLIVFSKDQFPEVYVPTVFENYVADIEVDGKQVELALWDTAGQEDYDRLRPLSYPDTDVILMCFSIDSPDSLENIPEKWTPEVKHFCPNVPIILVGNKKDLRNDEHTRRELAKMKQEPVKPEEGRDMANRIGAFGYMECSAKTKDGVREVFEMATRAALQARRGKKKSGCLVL
T2 sequence (P61586 whole entry F25N): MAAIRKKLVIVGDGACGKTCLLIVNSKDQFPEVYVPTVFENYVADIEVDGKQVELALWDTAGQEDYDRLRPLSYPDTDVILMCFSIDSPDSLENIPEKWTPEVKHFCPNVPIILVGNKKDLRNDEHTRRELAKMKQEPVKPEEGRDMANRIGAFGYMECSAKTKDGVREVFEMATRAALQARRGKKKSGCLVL

Compound | IC50 [1] | ResidualPercentActivity ([1]; Suppl. Tab. 2, screening data) | z_score ([1]; Suppl. Tab. 2, screening data) | KD for GST-RhoA loaded with GDP ([2]; 15°C, 2 mM GDP, fixed N = 0.5) | KD for GST-RhoA loaded with GTPγS ([2]; 15°C, 2 mM GTPγS, fixed N = 0.5) | binding number N (RhoA/Scaff10-8) ([2]; GDP- and GTPγS-bound forms) | viability of cells (MTS) [3]
COc1ccc(-c2coc3cc4oc(=O)c(C)c(C)c4cc23)cc1 [Scaff10, 3-(4-Methoxyphenyl)-5,6-dimethyl-furo[3,2-g]chromen-7-one] | 26 µM | -9.0% | -9.0 |  |  |  | 
COc1ccc(-c2coc3cc4oc(=O)c(CCC(=O)O)c(C)c4cc23)cc1 [Scaff10-8, 3-[3-(4-Methoxyphenyl)-5-methyl-7-oxo-furo[3,2-g]chromen-6-yl] propanoic acid] |  |  |  | 20 ± 1 µM | 38 ± 4 µM | ~0.5 | did not influence the viability
